Reference: US5110976A, “Insecticidal composition comprising more than one active ingredient” (priority 1985, dated 1992)
Entries after “also recorded” stand apart in the source; their conditions may differ.

How the values were obtained:
T. confusum [1] = assay: Contact test with piperonyl butoxide (Table 17); type: in vivo, flour-beetle (T. confusum), imagos; details: for mortality at 25 µg/disc / mortality at 50 µg/disc / mortality at 100 µg/disc / mortality at 200 µg/disc / mortality at 400 µg/disc: Tribolium confusum, 24 h, PBO, where added, 0.5 mg/disc; for mortality at 25 µg/disc: 0.025 mg/disc; for mortality at 50 µg/disc: 0.05 mg/disc; for mortality at 100 µg/disc: 0.1 mg/disc; for mortality at 200 µg/disc: 0.2 mg/disc; for mortality at 400 µg/disc: 0.4 mg/disc
Procedure: The active ingredient is dissolved in a 1:2 mixture of oil and acetone; filter paper discs (Whatman No. 1, diameter 9 cm) are impregnated with the solutions of the corresponding stereoisomers and enantiomer-pairs, respectively. The acetone is allowed to evaporate, whereupon the insects are exposed to filter papers discs placed in Petri-dishes. Three parallels are used on each dose and 15 insects are placed into each Petri-dish. The percental mortality is determined after 24 hours. The corrected percent mortality is calculated by means of the Abbot Formula.
Imagos of flour-beetle (T. confusum) are treated in an analogous manner to Example 41. As synergist piperonyl butoxide is used in a dose of 0.5 mg/disc.

Myzus persicae = assay: 5 EC formulations on aphid-infected bean plants (Table 22); type: in vivo, green peach aphids (Myzus persicae)
Procedure: 15 bean plants infected with green peach aphids (Myzus persicae) at 6 days' age are cultivated in each pot. At 12 days' age the strongly and uniformly infected plants are selected and sprayed to run-off with emulsions freshly prepared from the formulation according to Example 42. Treatments are carried out with three doses (active ingredient 2.5, 5 and 10 ppm) and four parallels are used (one pot per parallel). The second, fourth and eighth day after treatment the aphids are swept down from the plants to a white paper with a fine brush and the live insects are counted.

A. matricariae = assay: Direct contact test on pupae (Table 26); type: in vivo
Procedure: Mature pupae of A. matricariae on paprika leaves in Petri-dishes are exposed to a direct spray of the active ingredients. Two or three days before emergence paprika leaves with parasitized pupae are used. The leaves are laid on moistened filter paper in a plastic Petri-dish.
Application of treatment: See Example 57.
The pieces of leaf are transferred after treatment to clean Petri-dish bottoms. The trays are stored in a climatic chamber at 20° C. temperature, 70% relative humidity and a light-dark cycle of 16-8 h. Surviving pupae hatch after 2-3 days. The numbers of hatched and dead pupae are counted.

T. confusum [2] = assay: Filter paper contact test with piperonyl butoxide (Table 7); type: in vivo, confused flour-beetle (T. confusum), imagos; details: for mortality at 25 µg/disc / mortality at 50 µg/disc / mortality at 100 µg/disc / mortality at 200 µg/disc / mortality at 400 µg/disc: Tribolium confusum, 24 h, PBO, where added, 0.5 mg/disc; for mortality at 25 µg/disc: 0.025 mg/disc; for mortality at 50 µg/disc: 0.05 mg/disc; for mortality at 100 µg/disc: 0.1 mg/disc; for mortality at 200 µg/disc: 0.2 mg/disc; for mortality at 400 µg/disc: 0.4 mg/disc
Procedure: (§1) The stereoisomers are dissolved in a 1:2 mixture of mineral oil and acetone and filter paper discs (Whatman No. 1., diameter 9 cm) are impregnated with the corresponding dosage of the solution of the active ingredient. The acetone is allowed to evaporate and the insects are examined on filter paper discs placed into Petri-dishes. Three parallels are used for each dose and 15 animals are placed in each Petri-dish. Mortality rate is determined after 24 hours. The corrected mortality % data are calculated by means of the Abbot formula.
T. confusum (confused flour-beetle) imagos are treated according to Example 20 and percental mortality is determined after 24 hours. The dose of piperonyl butoxide (referred to furtheron as "[…]") amounts to 0.5 mg/disc The results are disclosed in Table 7.

T. confusum [3] = assay: Contact method, synergism between stereoisomers (Table 2); type: in vivo; details: Tribolium confusum, 24 h
Procedure: as §1
The test is carried out on T. confusum and the following results are obtained by the contact method for various active ingredient doses.
The test is carried out according to the method described in Example 20.

[4] = tested on: Leptinotarsa decemlineata; assay: Topical test on potato beetle (Table 6); type: in vivo, imagos; details: 24 h
Procedure: The active ingredients are dissolved in 2-ethoxyethanol and […] of the solutions are applied onto the abdominal sterna of potato beetle (Leptinotarsa decemlineata) imagos. The treatments are carried out by using two parallels and 10 insects for each dose. […]

Hyphantria cunea = assay: Topical test on fall webworm (Table 8); type: in vivo, L7-L8 larvae; details: 24 h
Procedure: The active ingredients are dissolved in 2-ethoxyethanol and the solutions are applied in the form of 0.2 μl droplets onto the back of fall webworm (Hyphantria cunea) of L7 -L8 larvae stage. The treated worms are placed on strawberry leaves in Petri-dishes. The test is carried out by using 5 doses; 2 parallels and 10 insects for each dose.

L. decemlineata = assay: 5 EC formulation sprayed on glass plates (Table 9); type: in vivo, Colorado beetle (L. decemlineata), imagos; details: 48 hours
Procedure: (§2) From a 5 EC formulation according to Example 17 50-, 100-, 200-, 400-, 800- and 1600-fold diluted emulsions are prepared by diluting with water. 0.5 ml of the emulsions are sprayed onto glass plates whereupon after drying 10 Colorado beetles (L. decemlineata) imagos are placed on each glass plate and the insects are covered. The tests are carried out with 6 doses by carrying out 3 parallels for each dose. The killed insects are counted after 48 hours and the percental mortality rate is calculated.

Acanthoscelides obtectus = assay: 5 EC formulation, insecticidal effect on bean weevil (Table 10); type: in vivo, bean weevil (Acanthoscelides obtectus), imagos; details: 24 hours
Procedure: as §2
The insecticidal effect is tested on been weevil (Acanthoscelides obtectus) imagos. The killed insects are counted after 24 hours and the percental mortality rate is calculated.

[5] = Allergy and skin diseases; details: in vivo
bees = assay: Toxicity on bees; details: in vivo
[6] = tested on: useful entomophages and parasites; assay: Damage to useful entomophages and parasites; details: in vivo
[7] = 2.5 ppm, 2 days after treatment (control 1850)
[8] = 2.5 ppm, 4 days after treatment (control 2780)
[9] = 2.5 ppm, 8 days after treatment (control 4120)
[10] = 5.0 ppm, 2 days after treatment (control 1850)
[11] = 5.0 ppm, 4 days after treatment (control 2780)
[12] = 5.0 ppm, 8 days after treatment (control 4120)
[13] = 10.0 ppm, 2 days after treatment (control 1850)
[14] = 10.0 ppm, 4 days after treatment (control 2780)
[15] = 10.0 ppm, 8 days after treatment (control 4120)

CC1(C)C(C=C(Cl)Cl)C1C(=O)OC(C#N)c1cccc(Oc2ccccc2)c1 (stereo not shown) [Ia:Ib = 4:6]
synergizability with piperonyl butoxide (T. confusum [1]; Ia:Ib=4:6 mixture versus Ia): can be synergized to a larger extent than enantiomer Ia
mortality at 25 µg/disc (T. confusum [1]): 0%
mortality at 50 µg/disc (T. confusum [1]): 18%
mortality at 100 µg/disc (T. confusum [1]): 57%
mortality at 200 µg/disc (T. confusum [1]): 90%
mortality at 400 µg/disc (T. confusum [1]): 100%
Average number of aphids per pot (Myzus persicae; [7]): 38
Average number of aphids per pot (Myzus persicae; [8]): 71
Average number of aphids per pot (Myzus persicae; [9]): 251
Average number of aphids per pot (Myzus persicae; [10]): 21
Average number of aphids per pot (Myzus persicae; [11]): 32
Average number of aphids per pot (Myzus persicae; [12]): 82
Average number of aphids per pot (Myzus persicae; [13]): 10
Average number of aphids per pot (Myzus persicae; [14]): 11
Average number of aphids per pot (Myzus persicae; [15]): 21
Mortality % (A. matricariae; 1 ppm): 0%
Mortality % (A. matricariae; 5 ppm): 0%
Mortality % (A. matricariae; 10 ppm): 0%
Mortality % (A. matricariae; 33 ppm): 14.3%

CC1(C)[C@H](C(=O)O[C@H](C#N)c2cccc(Oc3ccccc3)c2)[C@@H]1C=C(Cl)Cl (relative stereo) [Ia]
mortality at 25 µg/disc (T. confusum [2]): 0%
mortality at 50 µg/disc (T. confusum [2]): 0%
mortality at 100 µg/disc (T. confusum [2]): 12%
mortality at 200 µg/disc (T. confusum [2]): 53%
mortality at 400 µg/disc (T. confusum [2]): 96%
mortality at 25 µg/disc (T. confusum [1]): 0%
mortality at 50 µg/disc (T. confusum [1]): 0%
mortality at 100 µg/disc (T. confusum [1]): 12%
mortality at 200 µg/disc (T. confusum [1]): 53%
mortality at 400 µg/disc (T. confusum [1]): 96%
Average number of aphids per pot (Myzus persicae; [7]): 44
Average number of aphids per pot (Myzus persicae; [8]): 83
Average number of aphids per pot (Myzus persicae; [9]): 245
Average number of aphids per pot (Myzus persicae; [10]): 22
Average number of aphids per pot (Myzus persicae; [11]): 29
Average number of aphids per pot (Myzus persicae; [12]): 90
Average number of aphids per pot (Myzus persicae; [13]): 8
Average number of aphids per pot (Myzus persicae; [14]): 17
Average number of aphids per pot (Myzus persicae; [15]): 30
Mortality % (A. matricariae; 1 ppm): 0%
Mortality % (A. matricariae; 5 ppm): 0%
Mortality % (A. matricariae; 10 ppm): 12.5%
Mortality % (A. matricariae; 33 ppm): 77.0%

CC1(C)[C@H](C=C(Cl)Cl)[C@H]1C(=O)O[C@H](C#N)c1cccc(Oc2ccccc2)c1 (relative stereo) [Ib]
mortality at 110 µg/disc (T. confusum [3]; 0.11 mg/disc): 90%
mortality at 330 µg/disc (T. confusum [3]; 0.33 mg/disc): 100%
mortality at 1000 µg/disc (T. confusum [3]; 1.00 mg/disc): 100%
mortality at 3000 µg/disc (T. confusum [3]; 3.00 mg/disc): 100%
mortality at 0.05 µg/insect ([4]; 0.05 μg/insect): 0%
mortality at 0.1 µg/insect ([4]; 0.10 μg/insect): 25%
mortality at 0.2 µg/insect ([4]; 0.20 μg/insect): 75%
mortality at 0.4 µg/insect ([4]; 0.40 μg/insect): 85%
synergizability with piperonyl butoxide (T. confusum [2]; Ib versus Ia): can be synergized at a higher level than isomer pair Ia
mortality at 25 µg/disc (T. confusum [2]): 0%
mortality at 50 µg/disc (T. confusum [2]): 10%
mortality at 100 µg/disc (T. confusum [2]): 51%
mortality at 200 µg/disc (T. confusum [2]): 85%
mortality at 400 µg/disc (T. confusum [2]): 100%
mortality at 0.023 µg/larva (Hyphantria cunea; 0.023 μg/larvae): 10%
mortality at 0.047 µg/larva (Hyphantria cunea; 0.047 μg/larvae): 15%
mortality at 0.094 µg/larva (Hyphantria cunea; 0.094 μg/larvae): 30%
mortality at 0.188 µg/larva (Hyphantria cunea; 0.188 μg/larvae): 70%
mortality at 0.375 µg/larva (Hyphantria cunea; 0.375 μg/larvae): 80%
Mortality % (L. decemlineata; dilution 50x): 100%
Mortality % (L. decemlineata; dilution 100x): 87%
Mortality % (L. decemlineata; dilution 200x): 57%
Mortality % (L. decemlineata; dilution 400x): 37%
Mortality % (L. decemlineata; dilution 800x): 13%
Mortality % (L. decemlineata; dilution 1600x): 0%
Mortality % (Acanthoscelides obtectus; dilution 50x): 67%
Mortality % (Acanthoscelides obtectus; dilution 100x): 53%
Mortality % (Acanthoscelides obtectus; dilution 200x): 37%
Mortality % (Acanthoscelides obtectus; dilution 400x): 20%
Mortality % (Acanthoscelides obtectus; dilution 800x): 10%
Mortality % (Acanthoscelides obtectus; dilution 1600x): 3%
allergy and skin diseases [5]: causes no allergy and skin diseases
toxicity on bees (bees): very low toxicity on bees
damage / toxicity to useful entomophages and parasites [6]: does not damage useful entomophages and parasites; also recorded: less toxic on parasites than the isomer-pair Ia
